Measurements from US10273248B2, “Glucose uptake inhibitors” (Kadmon Corporation LLC, priority 2015, dated 2019).
Structures can show the parent of a compound that is named as a salt.

test system: glycolysis in HT1080 cells; assay: Glycolysis assay: oligomycin plus compound, cellular ATP by Cell Titer Glo; assay type: cell-based; settings: Homo sapiens, HT-1080, 1 h, 10 μM oligomycin, one hour, class symbols
Text: Therefore, an assay was developed that utilizes the combination of the glucose uptake inhibitors disclosed herein with oligomycin, a well-characterized inhibitor of ATP synthase. Because oligomycin inhibits ATP derived from oxidative phosphorylation, any remaining ATP production is derived from glycolysis. By reading out cellular ATP levels using the Promega Cell Titer Glo kit, the extent of glycolysis inhibition by the glucose uptake inhibitors disclosed herein can be assessed. […] Utilizing this experimental set-up, the IC50 of glycolysis inhibition for each compound can be determined.
Determination of Glucose Uptake/GLUT Activity (Glycolysis Assay):
HT1080 cells (as well as other cell types) were plated to confluency in 96-well plates. Cells were exposed to the combination of 10 μM Oligomycin (to block mitochondrial-derived ATP) and the glucose uptake inhibitors disclosed herein for one-hour, after which glycolytically-derived ATP was measured with the Cell Titer-Glo assay kit (Promega). Dose-response curves of the glucose uptake inhibitors disclosed herein were used to determine the IC50 for GLUT activity.

SMILES | IC50 [nM]
CC(C)NC(=O)COc1cccc(-c2nc3c(c(Nc4ccc5[nH]ncc5c4)n2)COC3)c1 [Example 11, 2-(3-(4-((1H-indazol-5-yl)amino)-5,7-dihydrofuro[3,4-d]pyrimidin-2-yl)phenoxy)-N-isopropylacetamide] | > 1000
O=C(CN1CCOCC1)Nc1cccc(-c2nc(Nc3ccc(-c4cn[nH]c4)cc3)c3ccsc3n2)c1 [Example 10, N-(3-(4-((4-(1H-pyrazol-4-yl)phenyl)amino)thieno[2,3-d]pyrimidin-2-yl)phenyl)-2-morpholinoacetamide] | > 1000
CC(C)CNC(=O)COc1cccc(-c2nc3c(c(Nc4ccc(-c5cn[nH]c5)cc4)n2)CNCC3)c1 [Example 161, 2-(3-(4-((4-(1H-pyrazol-4-yl)phenyl)amino)-5,6,7,8-tetrahydropyrido[4,3-d]pyrimidin-2-yl)phenoxy)-N-isobutylacetamide] | 251 to 500
Cc1ccc(CNc2cccc(-c3nc4c(c(Nc5ccc(-c6cn[nH]c6)cc5)n3)COC4)c2)cn1 [Example 91, N-(4-(1H-pyrazol-4-yl)phenyl)-2-(3-(((6-methylpyridin-3-yl)methyl)amino)phenyl)-5,7-dihydrofuro[3,4-d]pyrimidin-4-amine] | > 1000
CC(C)NC(=O)COc1cccc(-c2nc(Nc3ccc(-c4cn[nH]c4)cc3)c3cccnc3n2)c1 [Example 52, 2-(3-(4-((4-(1H-pyrazol-4-yl)phenyl)amino)pyrido[2,3-d]pyrimidin-2-yl)phenoxy)-N-isopropylacetamide] | 501 to 1000
Clc1cncc(CNc2cccc(-c3nc4c(c(Nc5ccc(-c6cn[nH]c6)cc5)n3)COC4)c2)c1 [Example 93, N-(4-(1H-pyrazol-4-yl)phenyl)-2-(3-(((5-chloropyridin-3-yl)methyl)amino)phenyl)-5,7-dihydrofuro[3,4-d]pyrimidin-4-amine] | 501 to 1000
CC(C)N1CCc2nc(-c3cccc(OCC(=O)NC4CCC4)c3)nc(Nc3ccc(-c4cn[nH]c4)cc3)c2C1 [Example 159, 2-(3-(4-((4-(1H-pyrazol-4-yl)phenyl)amino)-6-isopropyl-5,6,7,8-tetrahydropyrido[4,3-d]pyrimidin-2-yl)phenoxy)-N-cyclobutylacetamide] | 251 to 500
CC(C(=O)Nc1cccc(-c2nc(Nc3ccc(-c4cn[nH]c4)cc3)c3sccc3n2)c1)N1CCOCC1 (centres unmarked) [Example 173, N-(3-(4-((4-(1H-pyrazol-4-yl)phenyl)amino)thieno[3,2-d]pyrimidin-2-yl)phenyl)-2-morpholinopropanamide] | 251 to 500
CN1CCc2nc(-c3cccc(OCC(=O)NCC(C)(C)C)c3)nc(Nc3ccc(-c4cn[nH]c4)cc3)c2C1 [Example 168, 2-(3-(4-((4-(1H-pyrazol-4-yl)phenyl)amino)-6-methyl-5,6,7,8-tetrahydropyrido[4,3-d]pyrimidin-2-yl)phenoxy)-N-neopentylacetamide] | 101 to 250
CC(C)CNC(=O)COc1cccc(-c2nc(Nc3ccc(-c4cn[nH]c4)cc3)c3c(cnn3C)n2)c1 [Example 61, 2-(3-(7-((4-(1H-pyrazol-4-yl)phenyl)amino)-1-methyl-1H-pyrazolo[4,3-d]pyrimidin-5-yl)phenoxy)-N-isobutylacetamide] | > 1000
CCN1CCc2nc(-c3cccc(OCC(=O)NCC(C)C)c3)nc(Nc3ccc(-c4cn[nH]c4)cc3)c2C1 [Example 164, 2-(3-(4-((4-(1H-pyrazol-4-yl)phenyl)amino)-6-ethyl-5,6,7,8-tetrahydropyrido[4,3-d]pyrimidin-2-yl)phenoxy)-N-isobutylacetamide] | 251 to 500
O=C(COc1cccc(-c2nc3c(c(Nc4ccc(-c5cn[nH]c5)cc4)n2)CNCC3)c1)NC1CCC1 [Example 157, 2-(3-(4-((4-(1H-pyrazol-4-yl)phenyl)amino)-5,6,7,8-tetrahydropyrido[4,3-d]pyrimidin-2-yl)phenoxy)-N-cyclobutylacetamide] | 101 to 250
Cn1ncc2nc(-c3cccc(OCC(=O)NC4CCCC4)c3)nc(Nc3ccc(-c4cn[nH]c4)cc3)c21 [Example 60, 2-(3-(7-((4-(1H-pyrazol-4-yl)phenyl)amino)-1-methyl-1H-pyrazolo[4,3-d]pyrimidin-5-yl)phenoxy)-N-cyclopentylacetamide] | 501 to 1000
CC(C)CNC(=O)COc1cccc(-c2nc(Nc3ccc(-c4cn[nH]c4)cc3)c3ncsc3n2)c1 [Example 68, 2-(3-(7-((4-(1H-pyrazol-4-yl)phenyl)amino)thiazolo[5,4-d]pyrimidin-5-yl)phenoxy)-N-isobutylacetamide] | 251 to 500
CCC(CC)NC(=O)COc1cccc(-c2nc3c(c(Nc4ccc(-c5cn[nH]c5)cc4)n2)CN(C(=O)C(C)C)CC3)c1 [Example 153, 2-(3-(4-((4-(1H-pyrazol-4-yl)phenyl)amino)-6-isobutyryl-5,6,7,8-tetrahydropyrido[4,3-d]pyrimidin-2-yl)phenoxy)-N-(pentan-3-yl)acetamide] | 10 to 100

The remaining lines, values ahead:

IC50 [nM] | SMILES
10 to 100 | O=C(Nc1cccc(-c2nc3c(c(Nc4ccc(-c5cn[nH]c5)cc4)n2)COC3)c1)c1ccccn1 [Example 177, N-(3-(4-((4-(1H-pyrazol-4-yl)phenyl)amino)-5,7-dihydrofuro[3,4-d]pyrimidin-2-yl)phenyl)picolinamide]
10 to 100 | CCC(C)NC(=O)COc1cccc(-c2nc3c(c(Nc4ccc(-c5cn[nH]c5)cc4)n2)COC3)c1 (centres unmarked) [Example 77, 2-(3-(4-((4-(1H-pyrazol-4-yl)phenyl)amino)-5,7-dihydrofuro[3,4-d]pyrimidin-2-yl)phenoxy)-N-(sec-butyl)acetamide]
10 to 100 | CC(C)CNC(=O)COc1cccc(-c2nc3c(c(Nc4ccc(-c5cn[nH]c5)cc4)n2)CN(C(=O)C(C)C)CC3)c1 [Example 154, 2-(3-(4-((4-(1H-pyrazol-4-yl)phenyl)amino)-6-isobutyryl-5,6,7,8-tetrahydropyrido[4,3-d]pyrimidin-2-yl)phenoxy)-N-isobutylacetamide]
10 to 100 | O=C(COc1cccc(-c2nc(Nc3ccc(-c4cn[nH]c4)cc3)c3ccncc3n2)c1)NC1CCC1 [Example 63, 2-(3-(4-((4-(1H-pyrazol-4-yl)phenyl)amino)pyrido[3,4-d]pyrimidin-2-yl)phenoxy)-N-cyclobutylacetamide]
10 to 100 | CC(C)CNC(=O)COc1cccc(-c2nc3c(c(Nc4ccc(-c5cn[nH]c5)cc4)n2)COCC3)c1 [Example 104, 2-(3-(4-((4-(1H-pyrazol-4-yl)phenyl)amino)-7,8-dihydro-5H-pyrano[4,3-d]pyrimidin-2-yl)phenoxy)-N-isobutylacetamide]
10 to 100 | CC(C)NC(=O)COc1cccc(-c2nc3c(c(Nc4ccc(-c5cn[nH]c5)cc4)n2)CN(C(=O)C(C)C)CC3)c1 [Example 149, 2-(3-(4-((4-(1H-pyrazol-4-yl)phenyl)amino)-6-isobutyryl-5,6,7,8-tetrahydropyrido[4,3-d]pyrimidin-2-yl)phenoxy)-N-isopropylacetamide]
10 to 100 | O=C(COc1cccc(-c2nc(Nc3ccc(-c4cn[nH]c4)cc3)c3ccncc3n2)c1)NC1CCCCC1 [Example 138, 2-(3-(4-((4-(1H-pyrazol-4-yl)phenyl)amino)pyrido[3,4-d]pyrimidin-2-yl)phenoxy)-N-cyclohexylacetamide dihydrochloride]
10 to 100 | CCC(C)(C)NC(=O)COc1cccc(-c2nc3c(c(Nc4ccc(-c5cn[nH]c5)cc4)n2)CN(C(=O)C(C)C)CC3)c1 [Example 156, 2-(3-(4-((4-(1H-pyrazol-4-yl)phenyl)amino)-6-isobutyryl-5,6,7,8-tetrahydropyrido[4,3-d]pyrimidin-2-yl)phenoxy)-N-(tert-pentyl)acetamide]
